Measurements reported in ChEMBL document CHEMBL5465560, “Selectivity Literature for EUbOPEN Chemogenomic Library” (2024).

Columns and labels:
[1] = target: T1, Bone morphogenetic protein receptor type-2 (Homo sapiens) (UniProt Q13873); details: at 10 µM
T1 sequence (whole entry): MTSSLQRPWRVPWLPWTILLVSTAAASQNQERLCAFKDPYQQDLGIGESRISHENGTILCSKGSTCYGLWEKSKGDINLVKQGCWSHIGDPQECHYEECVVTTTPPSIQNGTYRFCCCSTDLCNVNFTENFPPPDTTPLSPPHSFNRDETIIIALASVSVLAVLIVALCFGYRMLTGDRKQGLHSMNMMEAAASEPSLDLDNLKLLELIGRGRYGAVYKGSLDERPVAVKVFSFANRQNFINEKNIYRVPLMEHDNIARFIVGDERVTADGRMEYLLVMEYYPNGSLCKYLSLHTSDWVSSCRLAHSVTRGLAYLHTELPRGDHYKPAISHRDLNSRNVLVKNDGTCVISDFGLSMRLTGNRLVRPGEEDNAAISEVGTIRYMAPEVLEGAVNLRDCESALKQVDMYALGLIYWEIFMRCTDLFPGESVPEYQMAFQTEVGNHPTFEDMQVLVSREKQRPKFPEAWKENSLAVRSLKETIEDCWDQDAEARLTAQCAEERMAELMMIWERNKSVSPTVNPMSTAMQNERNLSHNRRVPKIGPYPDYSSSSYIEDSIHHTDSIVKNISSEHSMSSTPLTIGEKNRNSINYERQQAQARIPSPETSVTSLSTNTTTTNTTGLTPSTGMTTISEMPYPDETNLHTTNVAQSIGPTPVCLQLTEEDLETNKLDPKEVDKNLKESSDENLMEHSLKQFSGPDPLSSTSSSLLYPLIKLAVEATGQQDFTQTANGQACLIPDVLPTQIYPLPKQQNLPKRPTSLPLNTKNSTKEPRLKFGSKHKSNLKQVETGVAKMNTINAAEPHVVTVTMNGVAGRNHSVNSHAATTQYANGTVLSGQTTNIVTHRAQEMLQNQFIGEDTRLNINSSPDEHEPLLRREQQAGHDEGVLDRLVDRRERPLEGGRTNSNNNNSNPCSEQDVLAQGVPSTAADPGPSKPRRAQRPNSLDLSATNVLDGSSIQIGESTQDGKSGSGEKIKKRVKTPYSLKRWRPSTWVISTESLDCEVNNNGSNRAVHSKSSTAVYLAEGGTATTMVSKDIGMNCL

[2] = target: Mitogen-activated protein kinase kinase kinase 9 (Homo sapiens) (UniProt P80192); test: Selectivity interaction (KinomeScan (DiscoverX)) EUB0000229b MAP3K9; details: at 10 µM
Chain of Mitogen-activated protein kinase kinase kinase 9 (Homo sapiens) (P80192 whole entry, looked up): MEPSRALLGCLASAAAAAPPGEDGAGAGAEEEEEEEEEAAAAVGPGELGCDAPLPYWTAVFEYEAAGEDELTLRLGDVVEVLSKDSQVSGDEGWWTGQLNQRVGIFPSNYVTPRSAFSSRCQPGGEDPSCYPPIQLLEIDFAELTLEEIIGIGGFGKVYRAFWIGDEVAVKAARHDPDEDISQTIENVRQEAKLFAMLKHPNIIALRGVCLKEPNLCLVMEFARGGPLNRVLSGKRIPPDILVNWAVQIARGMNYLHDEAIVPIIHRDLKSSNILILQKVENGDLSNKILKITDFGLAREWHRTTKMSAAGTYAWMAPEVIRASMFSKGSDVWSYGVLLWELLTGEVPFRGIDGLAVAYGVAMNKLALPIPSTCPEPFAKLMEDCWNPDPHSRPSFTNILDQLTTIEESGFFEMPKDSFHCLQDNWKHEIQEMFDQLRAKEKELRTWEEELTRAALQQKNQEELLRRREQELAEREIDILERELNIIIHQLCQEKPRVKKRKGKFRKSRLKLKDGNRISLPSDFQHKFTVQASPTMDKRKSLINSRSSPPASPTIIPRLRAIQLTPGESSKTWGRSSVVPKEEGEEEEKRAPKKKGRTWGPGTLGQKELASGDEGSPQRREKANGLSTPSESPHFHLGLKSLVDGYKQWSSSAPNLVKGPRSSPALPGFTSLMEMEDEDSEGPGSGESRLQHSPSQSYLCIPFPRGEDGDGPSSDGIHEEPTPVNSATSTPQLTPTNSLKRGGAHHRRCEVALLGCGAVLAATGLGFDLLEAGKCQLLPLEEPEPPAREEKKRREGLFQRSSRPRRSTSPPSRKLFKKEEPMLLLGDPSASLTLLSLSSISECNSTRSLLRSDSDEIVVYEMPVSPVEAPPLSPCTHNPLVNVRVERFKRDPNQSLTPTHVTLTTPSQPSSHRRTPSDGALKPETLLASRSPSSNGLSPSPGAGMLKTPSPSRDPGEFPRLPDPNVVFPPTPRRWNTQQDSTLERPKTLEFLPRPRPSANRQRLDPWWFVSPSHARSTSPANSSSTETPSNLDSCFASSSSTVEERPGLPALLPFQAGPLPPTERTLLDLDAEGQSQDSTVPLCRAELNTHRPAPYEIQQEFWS

[3] = target: Receptor-interacting serine/threonine-protein kinase 2 (Homo sapiens, UniProt O43353); test: Selectivity interaction (Competition-binding assay (DiscoverX)) EUB0000229b RIPK2
[4] = target: Serine/threonine-protein kinase PRP4 homolog (Homo sapiens) (UniProt Q13523); test: Selectivity interaction (KinomeScan (DiscoverX)) EUB0000092b PRPF4B; details: at 10 µM
[5] = target: Focal adhesion kinase 1 (Homo sapiens, UniProt Q05397); test: Selectivity interaction (KinomeScan (DiscoverX)) EUB0000655a PTK2; details: at 10 µM
[6] = target: Serine/threonine-protein kinase 16 (Homo sapiens, UniProt O75716); test: Selectivity interaction (KinomeScan (DiscoverX)) EUB0000655a STK16; details: at 10 µM
Chain of Serine/threonine-protein kinase 16 (O75716 whole entry): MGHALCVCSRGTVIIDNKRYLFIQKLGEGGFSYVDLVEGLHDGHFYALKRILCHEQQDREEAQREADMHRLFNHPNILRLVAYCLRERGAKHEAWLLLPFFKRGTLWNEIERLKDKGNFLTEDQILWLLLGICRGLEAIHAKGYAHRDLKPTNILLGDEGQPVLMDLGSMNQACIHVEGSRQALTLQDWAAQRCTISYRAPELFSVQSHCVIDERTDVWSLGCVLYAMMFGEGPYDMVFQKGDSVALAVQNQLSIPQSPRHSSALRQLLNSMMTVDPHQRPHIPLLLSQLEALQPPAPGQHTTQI

[7] = target: RAC-gamma serine/threonine-protein kinase (Homo sapiens, UniProt Q9Y243); test: Selectivity interaction (KinomeScan (DiscoverX)) EUB0001079a AKT3; details: at 1 µM
[8] = target: Beta-1 adrenergic receptor (Homo sapiens, UniProt P08588); test: Selectivity interaction (GPCR panel (PDSP screen)) EUB0001079a ADRB1; details: at 10 µM
[9] = target: Homeodomain-interacting protein kinase 1 (Homo sapiens, UniProt Q86Z02); test: Selectivity interaction (Kinase panel (Z-LYTE Assay)) EUB0001632a HIPK1; details: at 10 µM
Chain of Homeodomain-interacting protein kinase 1 (Q86Z02 whole entry, looked up): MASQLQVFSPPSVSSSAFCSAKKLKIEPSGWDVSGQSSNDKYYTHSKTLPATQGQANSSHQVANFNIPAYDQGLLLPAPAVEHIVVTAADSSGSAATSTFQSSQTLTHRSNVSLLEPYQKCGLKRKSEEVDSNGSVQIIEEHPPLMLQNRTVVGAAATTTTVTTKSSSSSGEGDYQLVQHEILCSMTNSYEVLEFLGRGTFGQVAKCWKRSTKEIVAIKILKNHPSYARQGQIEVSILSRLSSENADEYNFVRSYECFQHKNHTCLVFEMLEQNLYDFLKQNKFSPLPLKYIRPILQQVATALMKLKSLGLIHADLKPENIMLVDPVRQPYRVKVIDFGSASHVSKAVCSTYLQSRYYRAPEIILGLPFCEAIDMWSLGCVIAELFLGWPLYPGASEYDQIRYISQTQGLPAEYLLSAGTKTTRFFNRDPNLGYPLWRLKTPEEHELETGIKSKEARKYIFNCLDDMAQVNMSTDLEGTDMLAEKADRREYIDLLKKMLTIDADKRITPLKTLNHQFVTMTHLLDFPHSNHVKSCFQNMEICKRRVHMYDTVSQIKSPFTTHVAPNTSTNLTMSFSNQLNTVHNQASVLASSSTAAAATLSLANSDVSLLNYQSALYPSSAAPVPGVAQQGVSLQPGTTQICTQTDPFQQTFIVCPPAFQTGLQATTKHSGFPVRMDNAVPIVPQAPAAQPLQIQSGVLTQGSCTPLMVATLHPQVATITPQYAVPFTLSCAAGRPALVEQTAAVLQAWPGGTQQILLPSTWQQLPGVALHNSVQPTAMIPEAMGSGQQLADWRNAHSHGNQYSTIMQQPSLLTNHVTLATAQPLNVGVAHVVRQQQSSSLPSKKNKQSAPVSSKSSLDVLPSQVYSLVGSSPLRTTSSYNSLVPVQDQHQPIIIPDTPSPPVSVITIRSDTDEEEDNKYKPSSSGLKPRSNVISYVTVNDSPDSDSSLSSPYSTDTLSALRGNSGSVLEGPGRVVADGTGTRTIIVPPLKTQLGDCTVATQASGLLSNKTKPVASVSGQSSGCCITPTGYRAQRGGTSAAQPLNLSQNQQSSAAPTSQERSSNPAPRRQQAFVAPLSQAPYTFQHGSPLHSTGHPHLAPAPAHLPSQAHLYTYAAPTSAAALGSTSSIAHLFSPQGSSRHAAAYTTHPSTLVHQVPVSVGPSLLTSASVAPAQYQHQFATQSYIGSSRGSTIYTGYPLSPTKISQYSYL

[10] = target: Serine/threonine-protein kinase PLK1 (Homo sapiens, UniProt P53350); test: Selectivity interaction (ActivX KiNativ screen (kinase selectivity in THP-1 cell lysates)) EUB0000639a PLK1; format: subcellular; details: lysate, at 1 µM
[11] = tested on: Mast/stem cell growth factor receptor Kit (Homo sapiens), P10721 [D816H]; test: (§1) Selectivity interaction (KinomeScan (DiscoverX)) EUB0000607a KIT; details: at 10 µM
Chain of Mast/stem cell growth factor receptor Kit (Homo sapiens), P10721 [D816H] (P10721 whole entry D816H): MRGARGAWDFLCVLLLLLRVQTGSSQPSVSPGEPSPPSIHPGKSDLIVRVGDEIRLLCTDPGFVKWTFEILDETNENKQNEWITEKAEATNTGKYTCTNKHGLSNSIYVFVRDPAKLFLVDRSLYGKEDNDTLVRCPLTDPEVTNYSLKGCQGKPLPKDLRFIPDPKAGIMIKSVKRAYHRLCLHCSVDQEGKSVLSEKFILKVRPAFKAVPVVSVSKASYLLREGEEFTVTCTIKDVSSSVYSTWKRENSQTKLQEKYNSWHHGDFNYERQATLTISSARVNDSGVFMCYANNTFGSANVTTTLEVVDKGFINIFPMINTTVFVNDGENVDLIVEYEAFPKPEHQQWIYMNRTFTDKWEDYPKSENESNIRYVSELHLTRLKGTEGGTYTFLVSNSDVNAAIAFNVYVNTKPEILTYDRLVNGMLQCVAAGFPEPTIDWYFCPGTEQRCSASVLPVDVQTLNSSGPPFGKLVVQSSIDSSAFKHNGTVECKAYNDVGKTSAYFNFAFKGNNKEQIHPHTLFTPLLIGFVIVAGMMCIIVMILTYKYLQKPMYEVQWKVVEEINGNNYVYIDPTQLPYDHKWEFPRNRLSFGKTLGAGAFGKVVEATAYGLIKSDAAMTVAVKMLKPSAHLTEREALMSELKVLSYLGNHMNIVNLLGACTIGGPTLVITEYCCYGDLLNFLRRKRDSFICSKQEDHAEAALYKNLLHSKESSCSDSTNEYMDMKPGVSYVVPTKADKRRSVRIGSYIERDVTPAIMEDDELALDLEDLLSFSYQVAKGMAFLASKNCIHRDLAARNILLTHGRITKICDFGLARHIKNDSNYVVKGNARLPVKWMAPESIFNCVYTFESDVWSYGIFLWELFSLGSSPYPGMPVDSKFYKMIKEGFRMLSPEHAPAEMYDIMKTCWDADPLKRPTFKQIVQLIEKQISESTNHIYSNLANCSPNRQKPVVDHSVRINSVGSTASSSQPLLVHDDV

[12] = tested on: Mast/stem cell growth factor receptor Kit (Homo sapiens), P10721 [V559D,V654A]; test: as §1; details: at 10 µM
[13] = tested on: Mast/stem cell growth factor receptor Kit (Homo sapiens), P10721 [L576P]; test: as §1; details: at 10 µM
[14] = tested on: Mast/stem cell growth factor receptor Kit (Homo sapiens), P10721 [D816V]; test: as §1; details: at 10 µM
[15] = tested on: Mast/stem cell growth factor receptor Kit (Homo sapiens), P10721 [V559D,T670I]; test: as §1; details: at 10 µM
[16] = tested on: Mast/stem cell growth factor receptor Kit (Homo sapiens), P10721 [A829P]; test: as §1; details: at 10 µM
[17] = target: Mast/stem cell growth factor receptor Kit (Homo sapiens, UniProt P10721); test: as §1; details: at 10 µM
[18] = tested on: Mast/stem cell growth factor receptor Kit (Homo sapiens), P10721 [V559D]; test: as §1; details: at 10 µM
[19] = target: 5-hydroxytryptamine receptor 1B (Homo sapiens) (UniProt P28222); test: Selectivity interaction (Panel of non-epigenetic targets (kinases, GPCRs, ion channels, and transporters, Eurofins) ) EUB0000271b HTR1B; details: at 1 µM
Chain of 5-hydroxytryptamine receptor 1B (Homo sapiens) (P28222 whole entry): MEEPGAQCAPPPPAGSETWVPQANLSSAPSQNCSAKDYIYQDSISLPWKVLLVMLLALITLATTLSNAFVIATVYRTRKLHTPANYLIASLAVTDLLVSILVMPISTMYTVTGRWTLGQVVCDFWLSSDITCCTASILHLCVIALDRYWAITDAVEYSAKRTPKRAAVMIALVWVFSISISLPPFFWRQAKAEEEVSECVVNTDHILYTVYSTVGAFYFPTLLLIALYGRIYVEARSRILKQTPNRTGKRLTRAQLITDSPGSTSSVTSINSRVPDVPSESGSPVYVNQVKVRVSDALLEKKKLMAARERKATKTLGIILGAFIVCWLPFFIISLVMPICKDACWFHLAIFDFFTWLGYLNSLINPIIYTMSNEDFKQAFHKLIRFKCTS

[20] = target: Protein arginine N-methyltransferase 3 (Homo sapiens, UniProt O60678); test: Selectivity interaction (Methyltransferase screen (radiometric assays, panel of 8 PRMTs, 21 protein lysine methyltransferases, 3 DNA methyltransferases, and one RNA methyltransferase)) EUB0000271b PRMT3
Chain of Protein arginine N-methyltransferase 3 (O60678 2-531 limits assumed): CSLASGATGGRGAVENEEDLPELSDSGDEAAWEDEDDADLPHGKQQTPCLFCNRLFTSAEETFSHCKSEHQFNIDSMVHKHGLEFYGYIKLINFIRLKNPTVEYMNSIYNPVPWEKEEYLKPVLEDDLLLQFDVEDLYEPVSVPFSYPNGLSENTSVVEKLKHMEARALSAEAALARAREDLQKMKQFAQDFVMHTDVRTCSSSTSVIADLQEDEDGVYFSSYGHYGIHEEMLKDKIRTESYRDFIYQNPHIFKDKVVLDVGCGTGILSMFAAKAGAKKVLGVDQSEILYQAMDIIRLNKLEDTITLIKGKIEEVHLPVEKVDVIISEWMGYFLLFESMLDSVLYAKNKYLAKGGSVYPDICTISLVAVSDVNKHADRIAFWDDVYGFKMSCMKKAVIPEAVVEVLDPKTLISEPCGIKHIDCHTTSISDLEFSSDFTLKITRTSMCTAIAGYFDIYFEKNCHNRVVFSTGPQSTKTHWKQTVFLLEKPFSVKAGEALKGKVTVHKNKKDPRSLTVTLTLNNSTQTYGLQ

[21] = target: Tyrosine-protein kinase CSK (Homo sapiens) (UniProt P41240); test: Selectivity interaction (KinomeScan (DiscoverX)) EUB0000045b CSK
Chain of Tyrosine-protein kinase CSK (Homo sapiens) (P41240 2-450 limits assumed): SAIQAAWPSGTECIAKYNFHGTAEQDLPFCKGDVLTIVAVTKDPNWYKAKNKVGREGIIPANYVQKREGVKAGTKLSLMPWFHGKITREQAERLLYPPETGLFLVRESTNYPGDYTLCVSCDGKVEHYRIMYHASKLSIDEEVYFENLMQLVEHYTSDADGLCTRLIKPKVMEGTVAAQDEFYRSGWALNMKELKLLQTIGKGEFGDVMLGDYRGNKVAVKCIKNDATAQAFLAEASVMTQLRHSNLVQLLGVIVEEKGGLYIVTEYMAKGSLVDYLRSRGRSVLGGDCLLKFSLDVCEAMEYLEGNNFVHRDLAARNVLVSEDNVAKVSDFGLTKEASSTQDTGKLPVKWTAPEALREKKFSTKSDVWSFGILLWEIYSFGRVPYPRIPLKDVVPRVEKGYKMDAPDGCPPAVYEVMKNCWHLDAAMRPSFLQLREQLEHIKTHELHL

[22] = target: Voltage-dependent N-type calcium channel subunit alpha-1B (Homo sapiens) (UniProt Q00975); test: Selectivity interaction (Eurofins CEREP Diversity Profile (receptors and ion channels)) EUB0000279b CACNA1B; details: at 10 µM
[23] = target: Protein kinase C beta type (Homo sapiens, UniProt P05771); test: Selectivity interaction (Kinase screening (Upstate/Millipore)) EUB0000604a PRKCB

CCN(CC)CCCCNc1ncc2cc(-c3cc(OC)cc(OC)c3)c(NC(=O)NC(C)(C)C)nc2n1
% of control [1]: 100%

COc1cc(N(C)c2ccnc3ccc(C(F)(F)F)cc23)cc(OC)c1OC
% binding [2]: 88% | Kd [3]: 4.9 µM

CCC(=O)N1CCN(c2ccc(-n3c(=O)ccc4cnc5ccc(-c6cnc7ccccc7c6)cc5c43)cc2C(F)(F)F)CC1
% of control [4]: 100%

CN(C)CCOc1ccc(-c2nc(-c3ccncc3)c(-c3ccc4c(c3)CC/C4=N\O)[nH]2)cc1
% of control [5]: 100% | % of control [6]: 94%

Nc1cnc(N2CCc3cc(S(=O)(=O)Nc4c(F)cc(Cl)cc4F)cc(N4CCCC4=O)c32)nc1 [TP-020n]
% of control [7]: 94% | % of inhibition [8]: 8.84%

Cn1cc(-n2cnc3c(NCc4nc5cc(Cl)c(Cl)cc5[nH]4)nc(N4CCOCC4)nc32)cn1
% of control [9]: -0.292%

CC[C@@H]1[C@H](F)C(=O)N[C@@H]1COc1nccc2cc(C(N)=O)c(OC)cc12 [ZIMLOVISERTIB]
% of inhibition [10]: -2.8%

CNC(=O)Nc1ccc(-c2nc(N3CC4CCC(C3)O4)c3cnn(C4CCC5(CC4)OCCO5)c3n2)cc1
% of control [11]: 86% | % of control [12]: 100% | % of control [13]: 85% | % of control [14]: 82% | % of control [15]: 100% | % of control [16]: 89% | % of control [17]: 91% | % of control [18]: 85%

Cc1cc(C)cc([C@@H]2c3cc(C)ccc3NC(=O)CN2C(=O)c2ccc(Br)s2)c1
% of inhibition [19]: 6% | % of activity ([20]; at 1 µM): 100% | % of activity ([20]; at 10 µM): 98%

C=CC(=O)Nc1cc(-n2c(=O)ccc3cnc4ccc(-c5ccc(NS(C)(=O)=O)cc5)cc4c32)ccc1C
% of control ([21]; at 1 µM): 99% | % of control ([21]; at 10 µM): 75%

CC(=O)c1cc(-c2ccccc2OCC2CC2)c2ncccn12
% of control [22]: 115%

Cc1cnc(Nc2ccc(F)cc2Cl)nc1-c1c[nH]c(C(=O)N[C@H](CO)c2cccc(Cl)c2)c1
% of inhibition [23]: 4%
